Where “and” joins values, the source holds several entries; their conditions need not be identical. Equal values may be shown once.
Test system: immortalized human microglia
Experiment: N-AS generation in human microglia (LC-MS/MS, Supplementary Fig 6a)
Format: cell-based
Procedure: Reactions were quenched by adding equal volume of cold methanol. A 100 μl aliquot of the reaction mixture was mixed with 30 μl of distilled water containing 5 ng ml^−1 of furosemide (internal standard) for 1 min and vigorously mixed with […] of ethyl acetate for 20 min. After centrifugation at 16,000×g for 10 min, the mixtures were kept for 2 h for freezing aqueous phase. The upper ethyl acetate layer was transferred to a clean tube and evaporated to dryness under a gentle stream of nitrogen. Then, the dried extract was reconstituted in 100 µl of mobile phase and 10 µl aliquot of the solution was injected into an Agilent 6470 Triple Quad LC–MS/MS system (Agilent, Wilmington, DE) coupled with an Agilent 1260 HPLC system. Separation was performed on a Synergy Polar RP column (4 μm particle size, 2.0 mm × 150 mm, Phenomenex) using a mobile phase that consisted of methanol and water (95:5, v/v) with 0.1% formic acid at a flow rate of 0.2 ml min^−1. Quantification was carried out using multiple reaction monitoring (MRM) at m/z 340.3→263.3 for N-AS and m/z 328.9→284.8 for furosemide (internal standard) in negative ionization mode and collision energy of 20 eV. […] Also, to confirm N-AS generation in neurons, microglia, and astrocytes, these cells were treated with Aβ, and sonicated in neuronal and glial culture medium. […] To evaluate N-AS in microglia and neurons in vivo, the cells were isolated from WT mice, APP/PS1 mice and APP/PS1 mice treated with N-AS at 9 months of age. The cells were sonicated and resuspended in glial and neuronal culture medium, respectively. A 100 μl aliquot of each cell lysate were used for the determination of N-AS using a method previously described.
To confirm the generation and roles of N-AS in neurons, cells from E18 C57BL/6 mice were prepared as previously described. Cortices were dissected and then dissociated followed by incubation in papain (Worthington) at 37 °C for 15 min. […] Aβ 1–42 (10 μM, 24 h, Invitrogen, 03112) was exposed to neurons and the cells were analyzed for the generation and roles of N-AS. […]

| Molecule | N-AS generation in human microglia (Ab 50mM + Acetyl CoA 100mM, sFig 6a) | N-AS generation, acetyl-S565 COX2 and SPM secretion, in words (Aβ-treated human microglia + acetyl-CoA) | N-AS generation, in words (Aβ-treated human microglia) |
| --- | --- | --- | --- |
| CC(=O)SCCNC(=O)CCNC(=O)[C@H](O)C(C)(C)COP(=O)(O)OP(=O)(O)OC[C@H]1O[C@@H](n2cnc3c(N)ncnc32)[C@H](O)[C@@H]1OP(=O)(O)O [Acetyl-CoA, acetyl-CoA] | 10.5625 and 12.1817 and 11.3721 and 11.7769 | restored | – |
| Ab: Aβ 1–42 (Invitrogen, 03112) used to induce an AD environment in cells | – | – | reduction of N-AS generation |
